The term pIC50 denotes the negative decadic logarithm of the IC50, by convention in mol/L.

pIC50: −log10 of the molar value.

Experiment [1] has as its system U87EGFRvIII. In words: Broad cell line profiling, U87EGFRvIII. The format is cell-based. Particulars: Homo sapiens, EGFRvIII Expressing Glioblastoma, read-out: PA IC50. The source says:
(§1) • A panel of human and mouse cancer cell types used to assess the breadth of PA activity, including multiple therapy resistant metastatic mesenchymal tumor cell lines and primary glioblastoma patient-derived metastatic stem/tumor initiating cell populations.

The subject of experiment [2] is GBM-A. In words: Broad cell line profiling, GBM-A. Format: cell-based. Particulars: Homo sapiens, Glioblastoma Cancer Stem Cell, read-out: PA IC50.
From the text: as §1

Experiment [3] has as its system Jurkat cells. In words: Cell cycle analysis, propidium iodide flow cytometry. The format is cell-based, human. The following applies: for G2M/sub-G1 (mostly apoptotic cells) / S phase entry: Jurkat cells, 10 nM treatment, 24 hr. The procedure: FIG. 2. […] Cell cycle analysis in Jurkat cells. Jurkat cells were treated with 10 nM of indicated compounds for 24 hours, and propodium iodide was used to identify different stages of cells by flow cytometry.
FIG. 6. Portimine A inhibits S phase entry in Jurkat cells. Portimine A downregulates NMD3 at protein level but upregulates in mRNA level in cells, as well as some essential apoptosis proteins. […] Protein degradation of p53, Mcl1, Bid, Bim, Noxa can be rescued by MG132 or Epoxomicin. (B) NMD3 mRNA increased after PA treatment, but not ePA control compound. Jurkat cells were treated with indicated compounds for 24 hr; Cells were then fixed and perform Propidium Iodide staining.
• 1) Portimine A and its functional analogs show stereo-selective acute toxicity in cancer cells (FIG. 1). […] (B) Structure of portimine related analogs: phenyl-portimine A (Ph-PA, 36) and epi-portimine A (ePA, 38). Structure of fully functionalized portimine A-based epimeric probe pair: portimine A-diazirine-alkyne (PA-DA, 35-2) and epi-portimine A-diazirine-alkyne (ePA-DA, 35-1). (C) Cell viability analysis of portimine A and analogs. Jurkat cells were treated with increasing concentrations of portimine A and analogs for 24 hours. All presented data as mean of biological replicated experiments (n=3). […] Jurkat cells were treated with portimine A or analogs for 12 hours at 10 nM. […] Structurally related negative control ePA and PB are non-toxic in all cell types in the current concentrate range. PBMCs (25k per well), Jurkat (10k per well). […] Cell cycle analysis in Jurkat cells (FIG. 2). Jurkat cells were treated with 10 nM of indicated compounds for 24 hours, and propodium iodide was used to identify different stages of cells by flow cytometry. […] (A) PA and Ph-PA show less toxic to healthy PBMCs compared to Jurkat cells. […] (B) Immunoblot of caspase-3 in Jurkat and PBMCs with indicated conditions. […] (A) Pharmacokinetic studies of mouse intraperitoneal (i.p.) and oral (p.o.) administration for portimine (n=3). […] Impact of PA [0.3 or 1 mg/kg intraperitoneally] on MC38 tumor growth in WT mice (n=6). (C) Kaplan-Myer survival curve of WT MC38 tumor-bearing mice (n=6) after treatment with PA as described in (D). Mice were euthanized when tumor area exceeded 2000 mm^3. Statistical analysis was performed using ANOVA analysis followed by multiple comparisons test, * p≤0.05. Treatment condition: Jurkat (60 M per condition); PA-DA/ePA-DA concentration: 0.5 uM, PA or ePA: 5 uM; Incubate with probe with or without competitors (PA, ePA) for 30 min; UV irradiated for 20 min. (0.5 uM PA-DA add a no-UV condition), Standard pulldown & biotin-enrichment and western blot analysis (Elute condition: 2× sample buffer+500 uM biotin, boil for 20 mins); Primary antibody NMD3 (ProteinTech, 1:150), Actin (BioRad, 1:10000). […] Chemical proteomic profiling with PA-DA in Jurkat cells (A, B, C, G) and HCC1806 cells (D, E, F, H) show NMD3 is the primary target candidate of portimine A. Volcano plot in panels A and D show protein competition in cells treated with active photoaffinity probe PA-DA (500 nM) and DMSO or the active competitor portimine A (PA, […]), dotted lines indicate threshold of fold change <4, p-value>0.05. […] (I, J) Confirmation of PA-DA engagement of NMD3 in Jurkat and HCC1806 cells. […] Treatment condition: Jurkat (5M per well). Portimine A concentration: 2 nM-1000 nM; In total treat cell for 12 hours. […] Protein degradation of p53, Mcl1, Bid, Bim, Noxa can be rescued by MG132 or Epoxomicin. […]
On the technique in general: Flow cytometry measures light scatter and fluorescence of single cells or particles in a stream.

For experiment [4], the system named is HT-1080 fibrosarcoma. In words: HT-1080 Tumor Xenograft Model. The format is in vivo, mouse. The following applies: 0.3 or 1.0 mg/kg, i.p. The source says: FIG. 9. […] (A) Systemic Portimine A in MC38 Syngeneic Tumor Xenograft Model; and (B) Systemic Portimine A in HT-1080 Tumor Xenograft Model.
Preliminary cell-based target engagement studies, based on compound washout, indicates PA is fast acting with <1 hr of exposure resulting in minimal loss of potency. Cmax-driven pharmacology and facile synthetic access to material enabled the evaluation of PA in both a syngeneic (MC38 colon carcinoma) and a human metastatic mesenchymal (HT-1080 fibrosarcoma) mouse tumor xenograft model. […] Metabolic stability represents an opportunity for an additional IP position.
• 1) Portimine A and its functional analogs show stereo-selective acute toxicity in cancer cells (FIG. 1). […] (B) Structure of portimine related analogs: phenyl-portimine A (Ph-PA, 36) and epi-portimine A (ePA, 38). Structure of fully functionalized portimine A-based epimeric probe pair: portimine A-diazirine-alkyne (PA-DA, 35-2) and epi-portimine A-diazirine-alkyne (ePA-DA, 35-1). (C) Cell viability analysis of portimine A and analogs. Jurkat cells were treated with increasing concentrations of portimine A and analogs for 24 hours. All presented data as mean of biological replicated experiments (n=3). […] Jurkat cells were treated with portimine A or analogs for 12 hours at 10 nM. […]

Experiment [5] concerns HCC1806. In words: Cell toxicity in HCC1806 cells. The format is cell-based, human. Particulars: 36-hour treatment.

Regarding `C=CC1=C[C@@H]2[C@@H]3O[C@]4(CC[C@H](O4)C(C)C[C@@H](O)C3=O)CC(O)C3=NCC[C@@]32CC1` (stereo partly shown) [PA, portimine A], the negative-log IC50 (pIC50) in experiment [1] was 8.47; in experiment [2] it was 8.59. Also, in experiment [3] (10 nM, 24 hours), the “cell cycle arrest in Jurkat cells” value is “triggers cell cycle arrest”. Also, the “G2M/sub-G1 (mostly apoptotic cells)” value in experiment [3] is “does not affect”. For the same compound, in experiment [3], the S phase entry result was “inhibited”. The “anti-tumor activity, HT-1080 fibrosarcoma xenograft model” value in experiment [4] is given as “Potent anti-tumor activity”.
On to `C#CCCC1(CCNC(=O)c2ccc(C3=C[C@@H]4[C@@H]5O[C@]6(CC[C@H](O6)C(C)C[C@@H](O)C5=O)CC(O)C5=NCC[C@@]54CC3)cc2)N=N1` (stereo partly shown) [PA-DA, portimine A-diazirine-alkyne], for which, in experiment [3], the “G2M/sub-G1 (mostly apoptotic cells)” value is “does not affect” and the S phase entry entry was “inhibited”.
Turning to `C=CC1=C[C@@H]2[C@@H]3OC4(CC[C@H](O4)C(C)C[C@@H](O)C3=O)CC(=O)C3=NCC[C@@]32CC1` (stereo partly shown) [PB, portimine B], in experiment [5], the “cell toxicity in breast (HCC1806) cancer cell line” value is on record as “minimal effects”.
For `C=CC1=C[C@@H]2[C@@H]3O[C@]4(CC[C@H](O4)C(C)C[C@@H](O)C3=O)C[C@@H](O)C3=NCC[C@@]32CC1` (stereo partly drawn) [ePA, epi-portimine A], the “cell toxicity in breast (HCC1806) cancer cell line” value in experiment [5] is on record as “minimal effects”.

(Values after patent publication US20260242390A1, “TOTAL SYNTHESES OF PORTIMINE A AND ANALOGUES THEREOF AS SMALL MOLECULE MODULATORS OF NMD3” (priority 2023, published 2026).)
